Here are results for 4 molecules from patent US7683045B2, “Class of γδ T cells activators and use thereof” (Innate Pharma S.A., priority 2005, dated 2010).

Broadly, the EC50 is the concentration that produces a half-maximal response.

Test [1] deals with primary polyclonal human Vγ9Vδ2 T cells. The experiment in a line: TNFα release (cytokine release) assay. Type of test: cell-based. The settings on record: for relative potency in words: TNFα release assay, comparison of the tested compounds. As for the experimental part:
Cells (primary polyclonal human Vγ9Vδ2 T cells which have been expanded in vitro and stored frozen at day 12-15 of expansion) are thawed and rinsed twice and centrifuged. Upon elimination of supernatant and resuspension of cells, the cells are incubated for 24 h at 37° C. in the presence of IL2 100 IU/ml (final concentration). The cells are washed and centrifuged, following which the supernatant is eliminated and the cells are resuspended and adjusted to the adequate final concentration. The cells are added to the wells of a 96-well plate.
To one row of wells is added a standard dilution series of (R,S)-3-(bromomethyl)-3-butanol-1-yl-diphosphate (R,S-BrHPP). Compounds to be tested, in this case (E)-4-hydroxy-3-methyl-2-butenyl pyrophosphate ((E)-HDMAPP) and the HAngelylPP and HTiglylPP compounds of the Angelyl/Tiglyl phosphoester series are added to experimental wells, after several dilutions.
Full plates are incubated 24 hours at 37° C. for stimulation of the γδ cells with the test compound and reference compounds, in this case HAngelylPP and HTiglylPP, (R,S)—BrHPP and (E) —HDMAPP, as further described below. After this time, 100 μl of culture supernatant is taken for TNFα dosage. Measurement of the released TNFα dosage is performed as described by the manufacturer's instruction in the TNFα enzyme immunoassay kit (ref. 11121, Immunotech—Beckman Coulter). OD at 405 nm is read, the OD being proportional to the concentration of released TNFα in the culture supernatant. The data are processed with the Excel software to compare concentration of test compound versus concentration of TNFα and for the calculation of the EC50 for each test compound.
The bioactivity of the compound HAngelylPP was assessed using a TNFα release assay as described above. Compounds (R,S)—BrHPP and (E)-HDMAPP were included for purpose of comparison. […] As will be appreciated, any other suitable assays such as cell amplification may be used in assessing compounds.

In test [2] the test system is γδ T cells. The settings on record: reported at best (Wilhelm et al., 2003); cited from earlier work.

“Also recorded” adds a separate entry of the source. Where two headings read alike, the source gives them in different places.

In the case of “(Z)-4-hydroxy-2-methylbut-2-enyl pyrophosphate [HAngelylPP]”, in test [1], the “relative potency in words” value was “highly potent; also recorded: the most potent compound of those tested”.
`CC(O)(CBr)CCOP(=O)(O)OP(=O)(O)O` (racemic) [(R,S)-BrHPP, (R,S)-3-(bromomethyl)-3-butanol-1-yl-diphosphate, reference compound]: the EC50 in test [1] (Homo sapiens, T-cell, TNFα release, 24 hours stimulation at 37° C., relative screening test (FIG. 3), read-out: in vitro EC50) is 37.7 nM; in test [1] (Homo sapiens, T-cell, prior assays with calibrated cells using a (R,S)-BrHPP-standard composition, read-out: EC50), about 15 nM.
Take “(E)-4-hydroxy-2-methylbut-2-enyl pyrophosphate [HTiglylPP]”: the “relative potency in words” value in test [1] is on record as “highly potent”. Besides, the EC50 in test [1] (TNFα release, 24 hours stimulation at 37° C., relative screening test (FIG. 3), read-out: in vitro EC50) is 15 nM.
As to `NCCC(O)(P(=O)(O)O)P(=O)(O)O` [pamidronate], in test [2], the “increase in γδ T cell count” value is at most 2 fold.
